Assay results as given in the supplement of paper PMC10307832.

Experiments:
Experiment in all cases: relative viability (nuclei count vs DMSO), 5 days (fraction); higher = more cells survive
[1] = compound: CCCCCCCC[C@H]1[C@@H](C(=C)C(=O)O1)C(=O)O [C-75]
Method in brief: (§1)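 A plate was accepted only when its control CV was below 25% and the cells had doubled at least once. Viability is defined from nuclear counts as treated wells divided by vehicle wells, with the median taken across plates. That median covers lung cancer cell lines grown in 1536-well plates, dosed by pinning at five √10-spaced library-drug concentrations, and counted in MetaXpress from 4× Hoechst images after 5 days.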

[2] = compound: O=C(O)c1ccc(-c2c[nH]c3ncc(-c4ccccc4)cc23)cc1C1CCCC1
Method in brief: as §1

[3] = compound: NC(=O)Nc1cc(-c2cccc(F)c2)sc1C(=O)N[C@H]1CCCNC1 [AZD7762]
Method in brief: as §1

[4] = compound: CC1(C)CCC(c2ccc(Cl)cc2)=C(CN2CCN(c3ccc(C(=O)NS(=O)(=O)c4ccc(N[C@H](CCN5CCOCC5)CSc5ccccc5)c(S(=O)(=O)C(F)(F)F)c4)cc3)CC2)C1 [Navitoclax]
Method in brief: as §1

[5] = compound: Oc1nc(-c2ccc(C(F)(F)F)cc2)nc2c1CSCC2 [XAV939]
Method in brief: as §1

| Cell Line | relative viability ([1]; 0.08 µM) | relative viability ([1]; 0.253 µM) | relative viability ([1]; 0.8 µM) | relative viability ([1]; 2.53 µM) | relative viability ([1]; 8 µM) | relative viability ([2]; 0.04 µM) | relative viability ([2]; 0.1265 µM) | relative viability ([2]; 0.4 µM) | relative viability ([2]; 1.265 µM) | relative viability ([3]; 0.01 µM) | relative viability ([3]; 0.03162 µM) | relative viability ([3]; 0.1 µM) | relative viability ([3]; 0.2 µM, anchor plate) | relative viability ([3]; 0.3162 µM) | relative viability ([3]; 1 µM) | relative viability ([4]; 0.005 µM) | relative viability ([4]; 0.01581 µM) | relative viability ([4]; 0.05 µM) | relative viability ([4]; 0.1581 µM) | relative viability ([4]; 0.5 µM) | relative viability ([4]; 0.5 µM, anchor plate) | relative viability ([5]; 0.08 µM) | relative viability ([5]; 0.253 µM) | relative viability ([5]; 0.8 µM) | relative viability ([5]; 2.53 µM) |
| --- | --- | --- | --- | --- | --- | --- | --- | --- | --- | --- | --- | --- | --- | --- | --- | --- | --- | --- | --- | --- | --- | --- | --- | --- | --- |
| HCC-827 | 1.01 | 0.953 | 1.01 | 0.976 | 1.07 | 0.96 | 1.07 | 0.993 | 0.863 | 1.05 | 1.08 | 1.08 | 0.23 | 1.1 | 0.731 | 1.07 | 1.12 | 0.953 | 1.04 | 1.05 | 1.02 | 1.04 | 1.06 | 0.991 | 1.02 |
| HOP-62 | 1.02 | 1.01 | 1.01 | 0.891 | 1.02 | 1.08 | 1.07 | 0.964 | 0.923 | 1.04 | 0.999 | 1.17 | 0.639 | 1.02 | 0.939 | 0.966 | 1.06 | 0.968 | 0.926 | 1.03 | 1 | 1.13 | 0.996 | 0.891 | 0.893 |
| IA-LM | 0.917 | 1.14 | 0.87 | 0.676 | 0.853 | 0.921 | 1.1 | 1.07 | 0.887 | 1.12 | 1.02 | 1.15 |  | 1.01 | 0.708 | 0.941 | 1.07 | 0.915 | 1 | 0.977 | 0.755 | 0.937 | 0.864 | 0.935 | 0.701 |
| LC-2-ad | 1.05 | 1.02 | 0.93 | 0.789 | 0.986 | 0.973 | 1.1 | 0.933 | 0.692 | 0.992 | 1.1 | 0.998 | 0.86 | 0.908 | 0.644 | 0.961 | 1.07 | 0.925 | 0.948 | 0.991 | 0.445 | 1.03 | 0.904 | 0.953 | 1 |
| LCLC-97TM1 | 0.963 | 1.09 | 0.95 | 0.813 | 0.622 | 1.04 | 0.957 | 0.98 | 0.901 | 1.05 | 0.98 | 1.11 | 0.281 | 0.926 | 0.588 | 0.966 | 1.06 | 0.915 | 0.94 | 1.02 | 0.502 | 0.975 | 0.764 | 0.879 | 0.944 |
| LCLC-103H | 0.919 | 0.998 | 0.909 | 0.788 | 1.03 | 1.01 | 1.08 | 0.991 | 1.09 | 1.03 | 0.974 | 1.02 | 0.796 | 0.907 | 0.992 | 1.02 | 1.03 | 0.83 | 1.04 | 1.05 |  | 1.08 | 0.914 | 0.92 | 0.831 |
| LK-2 | 0.911 | 1.25 | 1.02 | 0.841 | 0.706 | 1 | 1.06 | 0.872 | 0.944 | 1.05 | 1.12 | 0.955 | 0.467 | 0.938 | 0.776 | 1.02 | 1.03 | 1.11 | 0.997 | 1.02 | 0.886 | 1.06 | 0.877 | 1.01 | 0.755 |
